Results reported in ChEMBL document CHEMBL3396995, “Synthesis and biological evaluation of novel pyrrolidine acid analogs as potent dual PPARα/γ agonists” (Bioorg Med Chem Lett, 2015).
pEC50, pIC50: −log10 of the molar value.

Assays:
[1] = target: T1, Peroxisome proliferator-activated receptor alpha (Homo sapiens, UniProt Q07869); assay: Binding affinity to PPARalpha (unknown origin) using fluorescein-tagged dual PPARalpha/gamma activator by homogeneous fluorescence polarization binding assay
T1 sequence (Q07869 whole entry): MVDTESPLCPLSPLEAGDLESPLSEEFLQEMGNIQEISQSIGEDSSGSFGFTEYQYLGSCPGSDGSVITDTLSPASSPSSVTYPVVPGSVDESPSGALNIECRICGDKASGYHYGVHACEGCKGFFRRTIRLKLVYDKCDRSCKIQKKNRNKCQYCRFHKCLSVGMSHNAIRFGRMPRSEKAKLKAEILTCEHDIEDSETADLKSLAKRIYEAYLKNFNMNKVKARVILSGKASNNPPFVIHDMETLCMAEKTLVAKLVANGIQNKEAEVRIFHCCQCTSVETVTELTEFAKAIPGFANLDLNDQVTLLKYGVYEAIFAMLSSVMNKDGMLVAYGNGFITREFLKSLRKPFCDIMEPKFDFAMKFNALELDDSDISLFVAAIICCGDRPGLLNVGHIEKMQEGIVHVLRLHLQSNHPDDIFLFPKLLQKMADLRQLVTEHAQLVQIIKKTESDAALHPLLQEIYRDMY

[2] = target: T1, Peroxisome proliferator-activated receptor alpha; assay: Agonist activity at GAL4 tagged human PPARalpha ligand binding domain expressed in HEK293 cells by luciferase reporter gene assay; format: cell-based; settings: for pEC50: read-out: EC50
[3] = target: T2, Peroxisome proliferator-activated receptor gamma (Homo sapiens, UniProt P37231); assay: Agonist activity at GAL4 tagged human PPARgamma ligand binding domain expressed in HEK293 cells by luciferase reporter gene assay; format: cell-based
T2 sequence (P37231 whole entry): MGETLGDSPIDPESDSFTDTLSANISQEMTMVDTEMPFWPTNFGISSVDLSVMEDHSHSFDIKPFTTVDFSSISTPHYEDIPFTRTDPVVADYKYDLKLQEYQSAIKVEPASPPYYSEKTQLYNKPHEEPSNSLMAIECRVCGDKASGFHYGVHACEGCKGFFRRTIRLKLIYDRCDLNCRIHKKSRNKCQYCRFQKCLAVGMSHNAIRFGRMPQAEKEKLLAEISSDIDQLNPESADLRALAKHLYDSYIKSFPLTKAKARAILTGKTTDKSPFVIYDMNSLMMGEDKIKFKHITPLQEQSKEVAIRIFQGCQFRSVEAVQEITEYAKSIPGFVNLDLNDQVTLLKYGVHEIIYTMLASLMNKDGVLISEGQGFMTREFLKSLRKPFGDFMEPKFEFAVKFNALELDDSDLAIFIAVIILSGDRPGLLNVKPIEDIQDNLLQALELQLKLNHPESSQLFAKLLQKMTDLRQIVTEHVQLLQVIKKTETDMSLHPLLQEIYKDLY

[4] = target: T2, Peroxisome proliferator-activated receptor gamma
Description: Binding affinity to PPARgamma (unknown origin) using fluorescein-tagged dual PPARalpha/gamma activator by homogeneous fluorescence polarization binding assay

SMILES | pIC50 [1] | pEC50 [2] | pEC50 [3] | pIC50 [4] | EC50 ([2]; hek293)
Cc1oc(-c2ccccc2)nc1CCOc1ccc(CC[C@H]2CN(C(=O)Oc3ccccc3)C[C@@H]2C(=O)O)cc1 (racemic) | 5.49 | 6.01 | < 5.00 | 6.47 | –
Cc1ccnc(N2C[C@@H](Cc3ccc(OCCc4nc(-c5ccccc5)oc4C)cc3)[C@@H](C(=O)O)C2)n1 (racemic) | 5.40 | 6.77 | 6.20 | 6.35 | –
CCOC(=O)N1C[C@@H](Cc2cccc(OCCc3nc(-c4ccccc4)oc3C)c2)[C@@H](C(=O)O)C1 (racemic) | 6.77 | 8.00 | 6.12 | – | –
Cc1oc(-c2ccccc2)nc1CCOc1cccc(C[C@@H]2CN(c3ccccc3)C[C@@H]2C(=O)O)c1 (racemic) | 7.40 | 7.70 | 5.47 | 6.66 | –
Cc1oc(-c2ccccc2)nc1CCOc1cccc([C@@H]2CN(C(=O)Oc3ccccc3)C[C@@H]2CC(=O)O)c1 (racemic) | 5.40 | 5.45 | 5.32 | 6.62 | –
Cc1oc(-c2ccccc2)nc1CCOc1cccc(CC[C@H]2CN(C(=O)Oc3ccccc3)C[C@@H]2C(=O)O)c1 (racemic) | < 5.00 | 5.59 | 5.93 | 6.28 | –
Cc1oc(-c2ccccc2)nc1CCOc1cccc(C[C@@H]2CN(C(=O)Oc3ccccc3)C[C@@H]2C(=O)O)c1 | 7.15 | 8.40 | 5.70 | 6.31 | –
Cc1oc(-c2ccccc2)nc1CCOc1ccc(C[C@@H]2CN(c3nccc(C(F)(F)F)n3)C[C@H]2C(=O)O)cc1 | < 4.30 | 5.36 | < 4.52 | 5.94 | –
Cc1oc(-c2ccccc2)nc1CCOc1cccc([C@@H]2CN(C(=O)Oc3ccccc3)C[C@@H]2C(=O)O)c1 (racemic) | < 5.00 | 5.78 | 5.25 | < 5.00 | –
Cc1oc(-c2ccccc2)nc1CCOc1cccc([C@H]2CN(C(=O)Oc3ccccc3)C[C@@H]2CC(=O)O)c1 (racemic) | < 5.00 | 4.93 | 4.84 | 5.74 | –
Cc1oc(-c2ccccc2)nc1CCOc1ccc(C[C@@H]2CN(c3nc(C(F)(F)F)co3)C[C@@H]2C(=O)O)cc1 (racemic) | 5.30 | 5.83 | < 4.52 | 7.30 | –
Cc1oc(-c2ccccc2)nc1CCOc1cccc(C[C@H]2CN(C(=O)Oc3ccccc3)C[C@@H]2C(=O)O)c1 (racemic) | 5.51 | 5.59 | 5.21 | 5.44 | –
Cc1oc(-c2ccccc2)nc1CCOc1cccc(C[C@H]2CN(C(=O)Oc3ccccc3)C[C@@H]2CC(=O)O)c1 (racemic) | 5.51 | 6.07 | < 5.00 | 6.68 | –
Cc1oc(-c2ccccc2)nc1CCOc1cccc(C[C@H]2CN(c3ccccc3)C[C@H]2C(=O)O)c1 | 6.49 | 6.17 | < 5.00 | 6.85 | –
CCOC(=O)N1C[C@@H](CCc2cccc(OCCc3nc(-c4ccccc4)oc3C)c2)[C@@H](C(=O)O)C1 (racemic) | 5.57 | 6.70 | 6.15 | 6.31 | –
Cc1oc(-c2ccccc2)nc1CCOc1ccc(C[C@@H]2CN(c3nc4ccccc4o3)C[C@@H]2C(=O)O)cc1 (racemic) | 5.66 | 5.61 | 5.68 | 6.23 | –
Cc1oc(-c2ccccc2)nc1CCOc1ccc(CC[C@@H]2CN(C(=O)Oc3ccccc3)C[C@@H]2C(=O)O)cc1 (racemic) | 6.32 | 8.00 | 6.80 | 7.05 | –
Cc1oc(-c2ccccc2)nc1CCOc1ccc(C[C@@H]2CN(c3nccc(C(F)(F)F)n3)C[C@@H]2C(=O)O)cc1 (racemic) | 6.13 | 7.52 | 7.30 | 7.52 | –
Cc1oc(-c2ccccc2)nc1CCOc1cccc(C[C@@H]2CN(C(=O)Oc3ccccc3)C[C@@H]2C(=O)O)c1 (racemic) | 6.66 | 8.00 | 5.90 | 5.88 | –
COc1ccc(OC(=O)N2[C@H](C(=O)O)CC[C@H]2c2ccc(OCCc3nc(-c4ccccc4)oc3C)cc2)cc1 | – | – | 7.30 | – | Not Active
Cc1oc(-c2ccccc2)nc1CCOc1ccc(C[C@H]2CN(c3nccc(C(F)(F)F)n3)C[C@@H]2C(=O)O)cc1 | 5.95 | 6.00 | < 4.52 | 5.45 | –

The next lines start with the values.

pIC50 [1] | pEC50 [2] | pEC50 [3] | pIC50 [4] | EC50 ([2]; hek293) | SMILES
5.69 | 8.22 | 6.52 | 5.57 | – | CCOC(=O)N1C[C@@H](Cc2ccc(OCCc3nc(-c4ccccc4)oc3C)cc2)[C@@H](C(=O)O)C1 (racemic)
< 5.00 | 5.09 | 5.01 | 5.26 | – | CCOC(=O)N1C[C@H](CC(=O)O)[C@@H](c2cccc(OCCc3nc(-c4ccccc4)oc3C)c2)C1 (racemic)
< 5.00 | < 4.82 | < 4.49 | < 5.00 | – | CCOC(=O)N1C[C@H](C(=O)O)[C@H](c2ccc(OCCc3nc(-c4ccccc4)oc3C)cc2)C1 (racemic)
5.74 | 8.00 | < 5.00 | 5.80 | – | CCOC(=O)N1C[C@H](CCc2ccc(OCCc3nc(-c4ccccc4)oc3C)cc2)[C@@H](C(=O)O)C1 (racemic)
< 5.00 | < 4.82 | < 4.49 | < 5.00 | – | CCOC(=O)N1C[C@H](C(=O)O)[C@@H](c2ccc(OCCc3nc(-c4ccccc4)oc3C)cc2)C1 (racemic)
5.26 | 5.54 | < 5.00 | – | – | CCOC(=O)N1C[C@@H](Cc2cccc(OCCc3nc(-c4ccccc4)oc3C)c2)[C@@H](CC(=O)O)C1
5.49 | 7.70 | 6.27 | 6.16 | – | CCOC(=O)N1C[C@@H](CCc2ccc(OCCc3nc(-c4ccccc4)oc3C)cc2)[C@@H](C(=O)O)C1 (racemic)
< 5.00 | – | – | < 5.00 | – | CCOC(=O)N1C[C@H](CC(=O)O)[C@H](c2ccc(OCCc3nc(-c4ccccc4)oc3C)cc2)C1 (racemic)
< 5.00 | 4.96 | < 5.00 | – | – | CCOC(=O)N1C[C@H](Cc2cccc(OCCc3nc(-c4ccccc4)oc3C)c2)[C@H](C(=O)O)C1
6.59 | 8.52 | 8.05 | – | – | CCOC(=O)N1C[C@@H](Cc2cccc(OCCc3nc(-c4ccccc4)oc3C)c2)[C@@H](C(=O)O)C1
< 4.82 | < 4.82 | 5.38 | 5.08 | – | Cc1oc(-c2ccccc2)nc1CCOc1ccc([C@@H]2CN(C(=O)Oc3ccccc3)C[C@@H]2CC(=O)O)cc1 (racemic)
< 5.00 | 4.70 | 4.62 | < 5.00 | – | CCOC(=O)N1C[C@H](C(=O)O)[C@H](c2cccc(OCCc3nc(-c4ccccc4)oc3C)c2)C1 (racemic)
5.67 | 6.82 | 5.55 | – | – | CCOC(=O)N1C[C@H](Cc2cccc(OCCc3nc(-c4ccccc4)oc3C)c2)[C@@H](C(=O)O)C1 (racemic)
5.67 | 8.22 | < 5.00 | – | – | CCOC(=O)N1C[C@H](CC(=O)O)[C@@H](Cc2cccc(OCCc3nc(-c4ccccc4)oc3C)c2)C1 (racemic)
